Measured values reported in ChEMBL document CHEMBL1201862, “PubChem BioAssay data set” (2004).
Activity calls are given as the source filed them.

Columns and labels:
[1] = target: ADP-ribosylation factor GTPase-activating protein 1 (Rattus norvegicus, UniProt Q62848); assay: Fluorescence polarization-based biochemical high throughput dose response screening assay to identify inhibitors of ADP-ribosylation factor GTPase activating protein 1 (ARFGAP1).; type: functional
[2] = viability of PTEN-deleted HCT116 cells – cell-based, HCT116 PTEN knockout, dose response (AID 1047); type: functional;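 further: HCT116 colon tumor cells with PTEN knocked out; cells exposed to compound for 60 hours before readout; potency for loss of cell viability measured by luminescence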
[3] = Counterscreen for inhibitors of Trypanosoma brucei methionyl tRNA synthetase (MetRS): Luminescence-based cell-based high throughput dose response assay to identify compounds that are cytotoxic to Jurkat human T lymphocyte cells.; type: functional
[4] = NIH3T3 cell viability loss – ATP luminescence, mouse fibroblasts, counter-screen, dose response (AID 2010); type: functional, cell-based;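 further: cells exposed to compound for about 90 hours before reading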
[5] = target: T1, Methionyl-tRNA synthetase, putative (Trypanosoma brucei brucei, UniProt Q38C91); type: functional, Trypanosoma brucei brucei strain 927/4 GUTat10.1
Cytochrome P450 1A2 = target: T2, Cytochrome P450 1A2 (Homo sapiens, UniProt P05177);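 further: PubChem cytochrome P450 panel assay, CYP1A2 panel member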
T2 sequence (P05177 whole entry): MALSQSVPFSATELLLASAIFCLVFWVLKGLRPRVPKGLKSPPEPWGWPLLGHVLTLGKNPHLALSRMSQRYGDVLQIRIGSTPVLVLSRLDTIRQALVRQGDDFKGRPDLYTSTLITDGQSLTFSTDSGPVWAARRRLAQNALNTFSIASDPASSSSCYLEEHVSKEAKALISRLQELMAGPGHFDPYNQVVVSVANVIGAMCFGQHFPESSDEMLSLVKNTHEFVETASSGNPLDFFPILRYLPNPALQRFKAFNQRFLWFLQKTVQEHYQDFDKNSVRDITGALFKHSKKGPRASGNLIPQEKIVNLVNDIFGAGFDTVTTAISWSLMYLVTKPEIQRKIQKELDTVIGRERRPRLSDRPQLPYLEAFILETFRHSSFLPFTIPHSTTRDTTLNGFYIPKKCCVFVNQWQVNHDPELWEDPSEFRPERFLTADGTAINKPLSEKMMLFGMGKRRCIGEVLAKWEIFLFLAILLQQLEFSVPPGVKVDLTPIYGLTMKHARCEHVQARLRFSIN

[6] = Trypanosoma cruzi growth suppression in host cells – NIH3T3 host cells, beta-gal luminescence, confirmation (AID 2044); type: functional, cell-based;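 further: intracellular parasites grown in NIH/3T3 mouse fibroblasts as host cells; luminescent beta-galactosidase reporter signal from transgenic T. cruzi replicating inside host cells; inhibitors lower the luminescence signal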
[7] = target: T3, Calpain-2 catalytic subunit (Sus scrofa, UniProt P43367); assay: m-calpain protease blockers, concentration series – biochemical, fluorogenic peptide substrate, dose response (AID 1420); type: functional
T3 sequence (P43367 whole entry): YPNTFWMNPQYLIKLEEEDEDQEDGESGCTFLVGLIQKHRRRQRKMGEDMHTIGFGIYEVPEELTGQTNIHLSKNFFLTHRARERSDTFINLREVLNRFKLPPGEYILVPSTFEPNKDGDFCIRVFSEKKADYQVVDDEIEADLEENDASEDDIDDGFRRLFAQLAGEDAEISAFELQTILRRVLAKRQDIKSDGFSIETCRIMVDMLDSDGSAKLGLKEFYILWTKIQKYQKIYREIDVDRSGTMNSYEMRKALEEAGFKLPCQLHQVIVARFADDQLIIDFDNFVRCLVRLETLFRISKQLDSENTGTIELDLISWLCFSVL

[8] = test system: Streptococcus sp. 'group A'; assay: Streptococcus pyogenes SK(-)GAS viability under kanamycin – luminescence, BacTiterGlo, confirmation, counter-screen for streptokinase expression inhibitor project, dose response (AID 1900); type: functional, organism-based
[9] = target: T1, Methionyl-tRNA synthetase, putative; type: functional, Trypanosoma brucei brucei strain 927/4 GUTat10.1; remark: listed apart in the source
[10] = viability of HCT116 lacking mutant beta-catenin – cell-based, human colon tumor, dose response (AID 1045); type: functional;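 further: HCT116 colon tumor cells with beta catenin knocked out; cells exposed to compound for 60 hours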
Streptokinase A = target: T4, Streptokinase A (Streptococcus pyogenes serotype M1, UniProt P10520); assay: viability-normalized secreted streptokinase activity reduction – plasminogen activation absorbance, OD405, dose response (AID 1914); type: functional, Streptococcus pyogenes M1 GAS;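 further: secreted streptokinase activity via plasminogen activation per viability signal from cell pellet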
T4 sequence (P10520 whole entry): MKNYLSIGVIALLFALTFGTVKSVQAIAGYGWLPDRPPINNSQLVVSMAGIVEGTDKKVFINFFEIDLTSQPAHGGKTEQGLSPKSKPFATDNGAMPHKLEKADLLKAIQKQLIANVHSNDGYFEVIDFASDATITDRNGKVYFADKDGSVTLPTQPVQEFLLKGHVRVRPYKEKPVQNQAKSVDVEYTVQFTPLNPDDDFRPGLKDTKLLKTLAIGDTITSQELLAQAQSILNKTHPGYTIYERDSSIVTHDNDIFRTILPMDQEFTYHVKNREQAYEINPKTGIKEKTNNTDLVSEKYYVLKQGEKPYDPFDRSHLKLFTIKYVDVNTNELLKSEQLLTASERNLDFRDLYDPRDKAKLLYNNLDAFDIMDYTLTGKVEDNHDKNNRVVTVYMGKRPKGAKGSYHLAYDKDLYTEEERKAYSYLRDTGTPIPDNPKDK

Streptococcus = assay: GAS UMAA2166 growth inhibition – luminescence, BacTiterGlo, counter-screen for streptokinase expression inhibitor project, dose response (AID 1915); type: functional, organism-based;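 further: potency for reduction of bacterial viability or growth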
[11] = target: T5, Sentrin-specific protease 8 (Homo sapiens, UniProt Q96LD8); type: functional
T5 sequence (Q96LD8 whole entry): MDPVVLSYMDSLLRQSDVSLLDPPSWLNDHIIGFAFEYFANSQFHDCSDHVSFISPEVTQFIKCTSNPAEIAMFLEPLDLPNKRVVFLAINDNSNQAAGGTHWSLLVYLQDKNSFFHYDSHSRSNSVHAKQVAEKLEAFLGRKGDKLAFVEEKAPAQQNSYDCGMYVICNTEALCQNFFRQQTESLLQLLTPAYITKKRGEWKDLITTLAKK

Caspase-3 = target: T6, Caspase-3 (Homo sapiens, UniProt P42574); assay: Dose-response confirmation of uHTS inhibitor hits of Sentrin-Specific Protease 8 in a Caspase-3 Fluorescence assay.; type: functional
T6 sequence (P42574 whole entry): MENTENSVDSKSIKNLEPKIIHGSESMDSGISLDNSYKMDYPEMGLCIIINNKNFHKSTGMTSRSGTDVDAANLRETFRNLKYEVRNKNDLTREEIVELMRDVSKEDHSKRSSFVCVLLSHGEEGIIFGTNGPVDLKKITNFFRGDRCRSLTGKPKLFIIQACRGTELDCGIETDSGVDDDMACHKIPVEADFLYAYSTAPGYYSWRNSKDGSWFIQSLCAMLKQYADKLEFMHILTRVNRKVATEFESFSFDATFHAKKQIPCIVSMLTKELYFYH

[12] = target: T5, Sentrin-specific protease 8; type: functional; remark: listed apart in the source

T1 sequence (Q38C91 whole entry): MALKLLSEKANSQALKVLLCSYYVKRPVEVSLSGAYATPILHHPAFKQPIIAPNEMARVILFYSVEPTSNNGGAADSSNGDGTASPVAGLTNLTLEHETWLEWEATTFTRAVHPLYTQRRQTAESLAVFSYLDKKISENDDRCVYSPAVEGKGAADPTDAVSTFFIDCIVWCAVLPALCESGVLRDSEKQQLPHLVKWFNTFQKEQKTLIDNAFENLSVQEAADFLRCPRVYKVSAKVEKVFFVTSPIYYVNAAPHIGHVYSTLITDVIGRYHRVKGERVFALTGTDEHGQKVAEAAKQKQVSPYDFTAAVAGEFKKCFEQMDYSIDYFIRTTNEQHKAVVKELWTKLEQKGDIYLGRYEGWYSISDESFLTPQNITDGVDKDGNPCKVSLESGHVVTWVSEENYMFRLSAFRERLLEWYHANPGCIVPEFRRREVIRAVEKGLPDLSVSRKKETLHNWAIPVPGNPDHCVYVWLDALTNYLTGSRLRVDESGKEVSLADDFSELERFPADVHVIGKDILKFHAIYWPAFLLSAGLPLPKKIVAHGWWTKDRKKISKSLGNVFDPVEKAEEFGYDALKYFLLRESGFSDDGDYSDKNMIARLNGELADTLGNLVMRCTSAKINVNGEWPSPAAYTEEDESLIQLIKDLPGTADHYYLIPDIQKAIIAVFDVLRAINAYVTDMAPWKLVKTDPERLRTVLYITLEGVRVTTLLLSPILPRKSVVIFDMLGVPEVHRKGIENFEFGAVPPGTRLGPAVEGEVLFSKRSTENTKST
Chain of ADP-ribosylation factor GTPase-activating protein 1 (Q62848 whole entry): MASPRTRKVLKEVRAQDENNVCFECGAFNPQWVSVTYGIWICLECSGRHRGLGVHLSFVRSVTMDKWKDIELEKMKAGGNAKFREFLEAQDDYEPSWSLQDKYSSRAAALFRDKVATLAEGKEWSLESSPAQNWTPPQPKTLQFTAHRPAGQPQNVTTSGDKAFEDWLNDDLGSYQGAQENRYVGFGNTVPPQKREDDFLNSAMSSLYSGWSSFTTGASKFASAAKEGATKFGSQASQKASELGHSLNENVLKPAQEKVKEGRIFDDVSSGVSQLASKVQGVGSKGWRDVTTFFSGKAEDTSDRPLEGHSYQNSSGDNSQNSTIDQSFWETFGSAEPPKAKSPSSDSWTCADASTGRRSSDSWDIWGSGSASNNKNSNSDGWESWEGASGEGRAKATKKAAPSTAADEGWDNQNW

With `Cc1ccc2nc(SCC(=O)Nc3cccc(F)c3)nc(=O)n2c1` the IC50 [1] was 44.9 µM (inactive).

For `CCN1C(=O)C(CC(=O)Nc2ccc(Br)cc2)N(CCCc2ccccc2)C1=S` (stereo unspecified), the EC50 [2] was 15.3 µM (active), the IC50 [3] was 41.5 µM (inactive) and the EC50 [4] was > 60 µM (not active). The IC50 [5] was 6.6 µM (active), the AC50 (Cytochrome P450 1A2) was 14.1 µM (inconclusive) and the EC50 [6] was 2.31 µM (active). The IC50 [7] was 5.99 µM (not active), the EC50 [8] was 3.15 µM (active) and the IC50 [9] was 5.93 µM (active). The EC50 [10] was 16.1 µM (active), the EC50 (Streptokinase A) was 1.98 µM (active) and the EC50 (Streptococcus) was 6.98 µM (active).

With `COc1ccc(Cc2nnc(SCC(=O)N3CCc4ccccc4C3)o2)cc1` the IC50 [11] was 72.5 µM (inactive), the IC50 (Caspase-3) was 48.1 µM (active) and the IC50 [12] was 10.3 µM (active).
